Results: ChEMBL document CHEMBL5576037, “Discovery of the first ataxia telangiectasia and Rad3-related (ATR) degraders for cancer treatment” (Eur J Med Chem, 2024)
Activity calls are given as the source filed them. No cut-off for these calls is given here.

Columns and labels:
[1] = tested on: LoVo; test: Induction of SIPA1L1 degradation in human LoVo cells at 1 uM incubated for 24 hrs by global proteomic profiling analysis; assay type: cell-based
[2] = target: T1, Protein cereblon/Serine/threonine-protein kinase ATR (Homo sapiens, UniProt Q13535+Q96SW2); test: PROTAC activity at CRBN/ATR in human LoVo cells assessed as induction of ATR degradation at 2.5 uM preincubated with MG132 for 4 hrs followed by compound addition and measured after 48 hrs by Western blot analysis; assay type: cell-based
[3] = target: T2, Serine/threonine-protein kinase Chk1 (Homo sapiens) (UniProt O14757); test: Inhibition of CHK1 phosphorylation at Ser345 residue in human LoVo cells incubated for 72 hrs by Western blot analysis; assay type: cell-based; settings: dose 0.16-10 µM
T2 sequence (whole entry): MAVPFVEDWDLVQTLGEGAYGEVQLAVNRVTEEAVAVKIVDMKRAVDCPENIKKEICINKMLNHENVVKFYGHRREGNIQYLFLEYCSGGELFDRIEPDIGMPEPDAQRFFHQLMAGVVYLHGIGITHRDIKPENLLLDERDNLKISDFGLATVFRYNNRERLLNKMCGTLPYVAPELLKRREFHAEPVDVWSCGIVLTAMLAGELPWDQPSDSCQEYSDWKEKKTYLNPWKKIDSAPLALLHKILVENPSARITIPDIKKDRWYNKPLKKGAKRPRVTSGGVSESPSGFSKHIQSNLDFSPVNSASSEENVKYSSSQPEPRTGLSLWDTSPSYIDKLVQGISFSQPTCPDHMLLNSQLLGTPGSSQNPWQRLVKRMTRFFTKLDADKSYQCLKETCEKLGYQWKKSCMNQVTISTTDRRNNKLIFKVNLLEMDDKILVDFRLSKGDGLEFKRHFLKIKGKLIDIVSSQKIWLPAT

[4] = target: T1, Protein cereblon/Serine/threonine-protein kinase ATR; test: PROTAC activity at CRBN/ATR in human LoVo cells assessed as induction of ATR degradation at 2.5 uM preincubated with AZD6738 for 4 hrs followed by compound addition and measured after 48 hrs by Western blot analysis; assay type: cell-based
[5] = tested on: LoVo; test: Cell cycle arrest in human LoVo cells assessed as accumulation of cells at G0/G1 phase at 1 uM incubated for 72 hrs by PI staining based flow cytometric analysis (reference value: 52.3 %); assay type: functional
[6] = MRT (0 to infinity) in BALB/c nude mouse xenografted with human LoVo cells at 25 mg/kg, ip administered as single dose and measured after 12 hrs by LC-MS/MS analysis; assay type: ADME, organism-based; settings: in vivo
[7] = tested on: LoVo; test: Antitumor activity against human LoVo cells xenografted in BALB/c nude mouse assessed as tumor growth inhibition at 25 mg/kg, ip administered […] for 15 days relative to control; assay type: functional; settings: 360 h, time 15 day, read-out: TGI
[8] = AUC (0 to infinity) in BALB/c nude mouse xenografted with human LoVo cells at 25 mg/kg, ip administered as single dose and measured after 12 hrs by LC-MS/MS analysis; assay type: ADME, organism-based; settings: in vivo
[9] = Toxicity in BALB/c nude mouse xenografted with human LoVo cells assessed as effect on kidney at 12.5 to 25 mg/kg, ip administered twice daily for 15 days by H and E staining based analysis; assay type: organism-based; settings: in vivo, 360 h, dose 12.5-25 mg/kg, time 15 day
[10] = AUC (0 to t) in BALB/c nude mouse xenografted with human LoVo cells at 25 mg/kg, ip administered as single dose and measured after 12 hrs by LC-MS/MS analysis; assay type: ADME, organism-based; settings: in vivo
[11] = Toxicity in BALB/c nude mouse xenografted with human LoVo cells assessed as effect on spleen at 12.5 to 25 mg/kg, ip administered twice daily for 15 days by H and E staining based analysis; assay type: organism-based; settings: in vivo, 360 h, dose 12.5-25 mg/kg, time 15 day
[12] = target: T2, Serine/threonine-protein kinase Chk1 (Homo sapiens); test: Induction of CHK1 degradation in human LoVo cells at 0.16 to 10 uM incubated for 72 hrs by Western blot analysis; assay type: cell-based; settings: dose 0.16-10 µM
[13] = Cmax in BALB/c nude mouse xenografted with human LoVo cells at 25 mg/kg, ip administered as single dose and measured after 12 hrs by LC-MS/MS analysis; assay type: ADME, organism-based; settings: in vivo
[14] = tested on: LoVo; test: Induction of apoptosis in human LoVo cells assessed as apoptotic rate at 0.5 uM incubated for 48 hrs by Annexin V-FITC/PI staining based flow cytometric analysis (reference value: 5.32 %); assay type: functional
[15] = target: T1, Protein cereblon/Serine/threonine-protein kinase ATR; test: In vivo PROTAC activity at CRBN/ATR in BALB/c nude mouse xenografted with human LoVo cells assessed as reduction in ATR phosphorylation at Thr1989 residue administered intraperitoneally once daily for 15 days by Western blot analysis; assay type: functional, organism-based; settings: dose 12.5-25 mg/kg, route ip, time 15.0 day
[16] = target: T3, ATPase family gene 2 protein homolog B (Homo sapiens) (UniProt Q9BVQ7); test: Induction of SPATA5L1 degradation in human LoVo cells at 1 uM incubated for 24 hrs by global proteomic profiling analysis; assay type: cell-based
T3 sequence (whole entry): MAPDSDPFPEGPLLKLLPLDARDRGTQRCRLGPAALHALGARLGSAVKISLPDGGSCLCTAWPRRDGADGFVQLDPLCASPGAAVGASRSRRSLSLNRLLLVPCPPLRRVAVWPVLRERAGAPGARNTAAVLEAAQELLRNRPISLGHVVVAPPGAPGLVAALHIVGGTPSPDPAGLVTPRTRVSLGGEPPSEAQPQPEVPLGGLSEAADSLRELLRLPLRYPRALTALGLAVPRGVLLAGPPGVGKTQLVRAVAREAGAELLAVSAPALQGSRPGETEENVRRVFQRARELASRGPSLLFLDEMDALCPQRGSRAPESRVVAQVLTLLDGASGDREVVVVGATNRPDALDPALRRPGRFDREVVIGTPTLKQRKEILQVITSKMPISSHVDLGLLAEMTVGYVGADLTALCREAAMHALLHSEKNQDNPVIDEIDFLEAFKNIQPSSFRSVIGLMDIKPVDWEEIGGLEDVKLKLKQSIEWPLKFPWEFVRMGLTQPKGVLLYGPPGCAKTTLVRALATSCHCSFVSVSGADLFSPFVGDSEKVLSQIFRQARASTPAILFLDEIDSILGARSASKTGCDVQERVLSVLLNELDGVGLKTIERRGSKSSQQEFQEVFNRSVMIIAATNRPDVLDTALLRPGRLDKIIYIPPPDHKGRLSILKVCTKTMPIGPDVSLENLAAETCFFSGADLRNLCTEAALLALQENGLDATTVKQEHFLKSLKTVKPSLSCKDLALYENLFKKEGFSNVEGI

[17] = target: T1, Protein cereblon/Serine/threonine-protein kinase ATR; test: PROTAC activity at CRBN/ATR in human LoVo cells assessed as induction of ATR degradation at 2.5 uM preincubated for 36 hrs followed by compound washout and measured after 12 to 48 hrs by Western blot analysis; assay type: cell-based
[18] = tested on: LoVo; test: Downregulation of total ATR protein level in human LoVo cells incubated for 72 hrs by Western blot analysis; assay type: functional, cell-based; settings: dose 0.16-10 µM
[19] = tested on: LoVo; test: Induction of apoptosis in human LoVo cells assessed as apoptotic rate at 1 uM incubated for 48 hrs by Annexin V-FITC/PI staining based flow cytometric analysis (reference value: 5.32 %); assay type: functional
[20] = target: T1, Protein cereblon/Serine/threonine-protein kinase ATR; test: PROTAC activity at CRBN/ATR in human LoVo cells assessed as induction of ATR degradation measured after 72 hrs by Western blot analysis; assay type: cell-based

Compound: C[C@@H]1COCCN1c1cc(C2([S@@](C)(=O)=NC(=O)CCc3cn(CCCCCCCC(=O)Nc4cccc5c4C(=O)N(C4CCC(=O)NC4=O)C5=O)nn3)CC2)nc(-c2ccnc3[nH]ccc23)n1 (stereo partly specified)
- Activity [1]: Active
- Activity [2]: inactive
- inhibition [3]: Dose-Dependent Effect
- Activity [4]: inactive
- Activity [5]: 67.3%
- MRT inf [6]: 4.65 h
- inhibition in vivo at 25 mg/kg [7]: 51.8%
- AUC(0-inf) [8]: 4070 ng·h/mL
- Activity [9]: Non-Toxic
- AUC(0-t) at 12 h [10]: 4550 ng·h/mL
- Activity [11]: Non-Toxic
- Activity [12]: inactive
- Cmax [13]: 1180 ng/mL
- Activity [14]: 23.91%
- Activity [15]: Dose-Dependent Effect
- Activity [16]: Active
- Activity [17]: Active
- Activity [18]: Dose-Dependent Effect
- Activity [19]: 45.62%
- Activity [20]: Dose-Dependent Effect
- DC50 [20]: 530 nM
